Measurements published in patent US20030215817A1, “Modulation of gene expression in formation of fatty atherosclerotic lesions” (priority 2003, published 2003).
Counter-ions that a name gives are not always drawn.

Experiments:
[1] = tested on: Rec1_6 (MspI ATCC 176) mRNA; experiment: quantified RT-PCR, Rec1_6; format: in vivo, rabbit; conditions: for Relative Abundance Rec1_6, 20 pg F: hypercholesterolemic plus lercanidipine racemate, eight weeks, H2 (normocholesterolemic)=1.0
Procedure: Nineteen of the isolated DST clones were further validated using RT-PCR analyses; the data are presented in FIGS. 6-24 and in Tables 5-23, below. For each DST examined, the optimal annealing temperature and reagent conditions were determined for the corresponding set of primers (see Table 25) based on results from a preliminary experiment. In eight separate reactions, each set of primers was assayed to find the optimal conditions by adjusting the following four parameters: primer concentration, dNTP concentration, MgCl2 concentration, and number of Taq polymerase units. Once optimal conditions were determined, each DST was run in duplicate multiple simultaneous reactions which usually included at least four dilutions of template (cDNA library), plus control reactions lacking template, and six sequential data points for numbers of cycles. Reactions were performed using “Hot Start” PCR with the Clontech TaqStart antibody system (Cat. #5400-1). Each reaction contained 1 ml of the cDNA library dilution as template, determined amounts of AmpliTaq DNA polymerase (cat. #N808-0156), MgCl2, dNTPs (GibcoBRL cat. #10297-018), primer, and Clontech TaqStart Antibody in a 20 ml final reaction volume using 10×Taq buffer II (without MgCl2). Typically, a master mix containing all components except the template was prepared and aliquoted. Various templates were then added to these master mix samples and 20 ml volumes were subsequently dispensed into individual reaction tubes. At various times during the PCR run, tubes were removed sequentially on a predetermined schedule in order to quantitate expression of the target DST over a “window” of cycle times. After amplification, the samples were quantified via fluorimetry. PCR was performed at annealing temperatures that were five degrees above the average melting temperature of each primer pair. For primers greater than 10 bases (in a 0.05M salt solution), melting temperature was calculated using the following formula: Tm=59.9+41[% GC]−[675/Primer Length], where %GC is the decimal value. Following determination of the average melting temperature of the primer pair, the annealing temperature was determined by adding five degrees to the average melting temperature. PCR was performed using the following program: 1) 95 degrees Celsius, 3 minutes; 2) 95 degrees Celsius, 30 seconds; 3) TM+5 degrees Celsius, 30 seconds; 4) 72 degrees Celsius, for a time dependent on target length at 16 bp/second; 5) repeat steps 2-4 33 more cycles; 6) 72 degrees Celsius, 3 minutes; 7) 14 degrees Celsius, forever. Following temperature cycling, 2 ml of the PCR reaction was added to 140 ml of a 1:280 dilution of PicoGreen (Molecular Probes cat. #P-11495 (10×100 ml)) in TE pH 7.5 in a 96-well Costar UV microtiter plate (Fisher cat. #07-200623). The samples were mixed gently for 1.5 minutes and allowed to equilibrate at room temperature in the dark for 15 minutes. The concentration of the PCR products was quantified by fluorimetry using a PerSeptive Biosystems CytoFluor series 4000 multi-well plate reader. Background fluorescence was determined by using duplicate control samples that were cycled with all reaction components except the template. The mean value from these duplicate background control samples was subtracted from the corresponding experimental values prior to analyzing results. The sensitivity of the PicoGreen dsDNA assay is reported to be 250 pg/ml (50 pg dsDNA in a […] assay volume) using a fluorescence microplate reader such as was used in these measurements. […]

Rec1_7 (CACA 282) mRNA = experiment: quantified RT-PCR, Rec1_7; format: in vivo, rabbit; conditions: for Relative Abundance Rec1_7, 100 pg F: hypercholesterolemic plus lercanidipine racemate, eight weeks, H2 (normocholesterolemic)=1.0
Procedure: Nineteen of the isolated DST clones were further validated using RT-PCR analyses; the data are presented in FIGS. 6-24 and in Tables 5-23, below. For each DST examined, the optimal annealing temperature and reagent conditions were determined for the corresponding set of primers (see Table 25) based on results from a preliminary experiment. In eight separate reactions, each set of primers was assayed to find the optimal conditions by adjusting the following four parameters: primer concentration, dNTP concentration, MgCl2 concentration, and number of Taq polymerase units. Once optimal conditions were determined, each DST was run in duplicate multiple simultaneous reactions which usually included at least four dilutions of template (cDNA library), plus control reactions lacking template, and six sequential data points for numbers of cycles.
Reactions were performed using “Hot Start” PCR with the Clontech TaqStart antibody system (Cat. #5400-1). Each reaction contained 1 ml of the cDNA library dilution as template, determined amounts of AmpliTaq DNA polymerase (cat. #N808-0156), MgCl2, dNTPs (GibcoBRL cat. #10297-018), primer, and Clontech TaqStart Antibody in a 20 ml final reaction volume using 10×Taq buffer II (without MgCl2). Typically, a master mix containing all components except the template was prepared and aliquoted. Various templates were then added to these master mix samples and 20 ml volumes were subsequently dispensed into individual reaction tubes. At various times during the PCR run, tubes were removed sequentially on a predetermined schedule in order to quantitate expression of the target DST over a “window” of cycle times. After amplification, the samples were quantified via fluorimetry.
PCR was performed at annealing temperatures that were five degrees above the average melting temperature of each primer pair. For primers greater than 10 bases (in a 0.05M salt solution), melting temperature was calculated using the following formula: Tm=59.9+41[% GC]−[675/Primer Length], where %GC is the decimal value. Following determination of the average melting temperature of the primer pair, the annealing temperature was determined by adding five degrees to the average melting temperature. PCR was performed using the following program: 1) 95 degrees Celsius, 3 minutes; 2) 95 degrees Celsius, 30 seconds; 3) TM+5 degrees Celsius, 30 seconds; 4) 72 degrees Celsius, for a time dependent on target length at 16 bp/second; 5) repeat steps 2-4 33 more cycles; 6) 72 degrees Celsius, 3 minutes; 7) 14 degrees Celsius, forever.
Following temperature cycling, 2 ml of the PCR reaction was added to 140 ml of a 1:280 dilution of PicoGreen (Molecular Probes cat. #P-11495 (10×100 ml)) in TE pH 7.5 in a 96-well Costar UV microtiter plate (Fisher cat. #07-200623). The samples were mixed gently for 1.5 minutes and allowed to equilibrate at room temperature in the dark for 15 minutes. The concentration of the PCR products was quantified by fluorimetry using a PerSeptive Biosystems CytoFluor series 4000 multi-well plate reader.
Background fluorescence was determined by using duplicate control samples that were cycled with all reaction components except the template. The mean value from these duplicate background control samples was subtracted from the corresponding experimental values prior to analyzing results. The sensitivity of the PicoGreen dsDNA assay is reported to be 250 pg/ml (50 pg dsDNA in a […] assay volume) using a fluorescence microplate reader such as was used in these measurements. […]

[2] = hypercholesterolemic animals receiving lercanidipine racemate

COC(=O)C1=C(C)NC(C)=C(C(=O)OC(C)(C)CN(C)CCC(c2ccccc2)c2ccccc2)C1c1cccc([N+](=O)[O-])c1 (racemic) [lercanidipine, lercanidipine hydrochloride]
Relative Abundance Rec1_6, 20 pg F ([1]; cycle 24): 3.1 | Relative Abundance Rec1_6, 20 pg F ([1]; cycle 26): 2.2 | Relative Abundance Rec1_6, 20 pg F ([1]; cycle 28): 2.1 | Relative Abundance Rec1_6, 20 pg F ([1]; cycle 30): 1.7 | Relative Abundance Rec1_6, 20 pg F ([1]; cycle 32): 1.4 | Relative Abundance Rec1_6, 20 pg F ([1]; cycle 34): 1.5 | expression of Rec1_6 at 8 weeks (RT-PCR study), in words [1, 2]: somewhat more elevated | Relative Abundance Rec1_7, 100 pg F (Rec1_7 (CACA 282) mRNA; cycle 24): 0.00 | Relative Abundance Rec1_7, 100 pg F (Rec1_7 (CACA 282) mRNA; cycle 26): 0.00 | Relative Abundance Rec1_7, 100 pg F (Rec1_7 (CACA 282) mRNA; cycle 28): 0.06 | Relative Abundance Rec1_7, 100 pg F (Rec1_7 (CACA 282) mRNA; cycle 30): 0.10 | Relative Abundance Rec1_7, 100 pg F (Rec1_7 (CACA 282) mRNA; cycle 32): 0.3 | Relative Abundance Rec1_7, 100 pg F (Rec1_7 (CACA 282) mRNA; cycle 34): 0.5 | expression of Rec1_7 at 8 weeks (RT-PCR study), in words (Rec1_7 (CACA 282) mRNA; [2]): down-regulated
